Source: patent US9370189B2, “Controlling Pseudomonas aeruginosa persister cells with GM-CSF” (priority 2012, dated 2016)

What was measured:
[1] = system: P. aeruginosa PAO1; assay: Effect of GM-CSF on planktonic PAO1 total population and persister cells at stationary phase, co-treatment with antibiotic; format: cell-based, Pseudomonas aeruginosa
[2] = system: P. aeruginosa PDO300 biofilm; assay: Effect of GM-CSF on 24-h PDO300 biofilm, alone and with antibiotic; format: cell-based, Pseudomonas aeruginosa; settings: for average CFU/ml of biofilm cells reduced by: reduction, PDO300 biofilm
Description: This Example describes the treatment of biofilms made from P. aeruginosa PAO1, PDO300 and Escherichia coli K12, with GM-CSF introduced directly or together with an antibiotic to test the synergy.
In brief, after preparing an overnight culture, it was subcultured to an initial OD600 of 0.01 to a total volume of 20 mL M63 medium (for PAO1 and PDO300) or 20 ml LB medium (for E. coli K12) in a petri dish with 316L stainless steel coupons (1.75 cm×1 cm). The biofilm was grown for 24 h at 37° C. without shaking. After incubation, the coupons were washed by gently dipping in 0.85% NaCl twice using tweezers and were placed in new empty petri dishes.
To test the synergistic effects between GM-CSF (2.43 pg/mL or 0.17 pM) and antibiotics, a total of 8 coupons were analyzed. These 8 coupons were placed in 4 petri dishes (2 coupons in each dish). The two dishes were labeled as control and the other two as treatment samples. In the treatment samples, GM-CSF was added to 20 mL of 0.85% NaCl to a concentration of 2.43 pg/mL (or 0.17 pM). The control samples were supplemented with the same amount of PBS and BSA as present in the samples with 2.43 pg/ml (or 0.17 pM) GM-CSF. The coupons were incubated at 37° C. for 2 h.
After incubation, a control dish and a treatment dish was selected for studying the killing effect of 2.43 pg/ml GM-CSF on biofilm cells. Each coupon after gentle washing with 0.85% NaCl buffer, was placed in a test tube with 3 mL 0.85% NaCl buffer in each. They were sonicated (B200, Sinosonic Industrial Co., Ltd., Taiwan) for 4 mins to release the biofilm cells in the buffer. After vortexing for 1 min, they were plated on LB agar plates using drop plate method. The CFU was counted after incubation at 37° C. for 24 h to count the total number of viable cells. Furthermore, the synergistic effect of antibiotics with GM-CSF was evaluated with additional 3.5 h treatment with antibiotic at 37° C. After incubation, drop plate method was performed and the CFU was counted to understand if there is a synergistic effect.

[3] = system: biofilm cells of PDO300; assay: Synergistic effects of GM-CSF, tobramycin and alginate lyase on biofilm cells of PDO300; format: cell-based, Pseudomonas aeruginosa; settings: 2.43 pg/mL GM-CSF with 200 μg/mL tobramycin, 3.5 h
Description: This Example describes an experiment, similar to the one described in Example 5 with respect to the planktonic cells of PDO300, which was performed on the biofilm cells of PDO300.
In brief, after preparing an overnight culture, it was subcultured to an OD600 of 0.01 in a total volume of 20 mL M63 medium with 316L stainless steel coupons (1.75 cm×1 cm). The biofilm was grown for 24 h at 37° C. After incubation, the coupons were washed by gently dipping in 0.85% NaCl buffer twice using tweezers and then placed in new empty petri dishes.
To test the synergistic effects of GM-CSF (2.43 pg/mL), tobramycin (200 μg/mL) and alginate lyase (0.5 mg/mL), a total of 8 coupons were included. These 8 coupons were placed in 8 microcentrifuge tubes with 2 mL of 0.85% NaCl buffer. There were 4 treatments samples, with 2 coupons for each treatment (i) Control (ii) […] Tobramycin (iii) 200 μg/mL Tobramycin and 2.43 pg/mL GM-CSF and (iv) 200 μg/mL Tobramycin, 2.43 pg/mL GM-CSF and 0.5 mg/mL Alginate lyase. […]
After incubation, each coupon was gently washed with 0.85% NaCl buffer and placed in a test tube with 2 mL of 0.85% NaCl buffer. […] The CFU was counted after incubation at 37° C. for 24 h to quantify the total number of viable cells. The synergistic effects of GM-CSF, tobramycin and alginate lyase were quantified based on CFU data.

[4] = system: whole cells of P. aeruginosa; assay: GM-CSF binding assay to bacterial whole cells (slot blot immunoblotting); set-up: species or system Pseudomonas aeruginosa; settings: PBS, room temperature, 2 h, anti-rhGM-CSF immunoblot (FIG. 21)
Description: This Example describes experiments conducted to determine the capability of GM-CSF to bind to whole cells of P. aeruginosa and E. coli. In brief, bacteria harvested at stationary phases of growth were washed with PBS and adjusted to OD600 of 0.4 with PBS to ensure that an equal amount of cells was used for all GF-CSF binding tests. Suspensions of bacteria (10^6 CFU) were then incubated with and without different amount of recombinant human GM-CSF (rhGM-CSF, R&D systems) in a 40 μL volume at room temperature for 2 hours. After incubation, the cell suspension was centrifuged to separate supernatant (comprising buffer and unbound GM-CSF) and pellet (comprising cell and bound GM-CSF, if any), followed by the addition of 10 mM EDTA and boiling for 30 minutes to inactivate bacterial alkaline phosphatase activity. As control, PBS buffer with GM-CSF were processed in the similar manner. All the samples were then applied to Slot Blot (BioRad) for immunoblotting experiments. Anti-rhGMCSF developed in mice (Human GM-CSF MAb, Mouse IgG1, R&D system) was used as first antibody; Alkaline Phosphatase conjugated with Anti-mouse IgG was used to detect the binding of GM-CSF with BCIP/NBT (Promega) as substrates.

GM-CSF: granulocyte macrophage-colony stimulating factor, a cytokine secreted by macrophages; recombinant human GM-CSF (R&D systems) in binding tests
% change in avg. CFU/mL by GM-CSF (compared to GM-CSF free control) ([1]; persisters, 1.7 pM GM-CSF, 200 μg/mL ciprofloxacin): −53.8 ± 16.1%
% change in avg. CFU/mL by GM-CSF (compared to GM-CSF free control) ([1]; persisters, 1.7 pM GM-CSF, 200 μg/mL gentamicin): −12.7 ± 8.8%
% change in avg. CFU/mL by GM-CSF (compared to GM-CSF free control) ([1]; persisters, 1.7 pM GM-CSF, 200 μg/mL tobramycin): −82.7 ± 2.3%
% change in avg. CFU/mL by GM-CSF (compared to GM-CSF free control) ([1]; persisters, 17 pM GM-CSF, 200 μg/mL ciprofloxacin): −74.0 ± 2.9%
% change in avg. CFU/mL by GM-CSF (compared to GM-CSF free control) ([1]; persisters, 17 pM GM-CSF, 200 μg/mL gentamicin): −25.4 ± 10.6%
% change in avg. CFU/mL by GM-CSF (compared to GM-CSF free control) ([1]; persisters, 17 pM GM-CSF, 200 μg/mL tetracycline): −91.2 ± 3.2%
% change in avg. CFU/mL by GM-CSF (compared to GM-CSF free control) ([1]; persisters, 17 pM GM-CSF, 200 μg/mL tobramycin): −86.5 ± 1.7%
% change in avg. CFU/mL by GM-CSF (compared to GM-CSF free control) ([1]; total viable cells, 1.7 pM GM-CSF, 200 μg/mL ciprofloxacin): −19.5 ± 15.6%
% change in avg. CFU/mL by GM-CSF (compared to GM-CSF free control) ([1]; total viable cells, 1.7 pM GM-CSF, 200 μg/mL gentamicin): −13.1 ± 7.4%
% change in avg. CFU/mL by GM-CSF (compared to GM-CSF free control) ([1]; total viable cells, 1.7 pM GM-CSF, 200 μg/mL tobramycin): −9.4 ± 20.0%
% change in avg. CFU/mL by GM-CSF (compared to GM-CSF free control) ([1]; total viable cells, 17 pM GM-CSF, 200 μg/mL ciprofloxacin): −10.3 ± 21.5%
% change in avg. CFU/mL by GM-CSF (compared to GM-CSF free control) ([1]; total viable cells, 17 pM GM-CSF, 200 μg/mL gentamicin): −15.9 ± 7.4%
% change in avg. CFU/mL by GM-CSF (compared to GM-CSF free control) ([1]; total viable cells, 17 pM GM-CSF, 200 μg/mL tetracycline): −1.0 ± 12.4%
% change in avg. CFU/mL by GM-CSF (compared to GM-CSF free control) ([1]; total viable cells, 17 pM GM-CSF, 200 μg/mL tobramycin): +3.1 ± 18.6%
% change in avg. CFU/ml after adding factor + CIP ([2]; 24-h PDO300 biofilm, 2.43 pg/mL GM-CSF with 200 μg/mL ciprofloxacin): −14.0%
% change in avg. CFU/ml after adding factor + TOB ([2]; 24-h PDO300 biofilm, 2.43 pg/mL GM-CSF with 200 μg/mL tobramycin): −13.0%
% change in avg. CFU/ml after adding factor + GEN ([2]; 24-h PDO300 biofilm, 2.43 pg/ml GM-CSF with 200 μg/mL gentamicin): −10.8%
% change in avg. CFU/ml after adding factor + TET ([2]; 24-h PDO300 biofilm, 2.43 pg/ml GM-CSF with 200 μg/mL tetracycline): −7.3%
average CFU/ml of biofilm cells reduced by ([2]; 2.43 pg/mL GM-CSF alone, average of 2 experiments): 5.64%
average CFU/ml of biofilm cells reduced by ([2]; 2.43 pg/mL GM-CSF in the presence of 200 μg/mL ciprofloxacin): 8.8%
average CFU/ml of biofilm cells reduced by ([2]; 2.43 pg/mL GM-CSF in the presence of 200 μg/mL gentamicin): 5.6%
average CFU/ml of biofilm cells reduced by ([2]; 2.43 pg/mL GM-CSF in the presence of 200 μg/mL tetracycline): 1.8%
average CFU/ml of biofilm cells reduced by ([2]; 2.43 pg/mL GM-CSF in the presence of 200 μg/mL tobramycin): 7.7%
additional killing of biofilm cells compared to the 200 μg/mL tobramycin treatment alone [3]: −24.7±5.3%
binding to whole cells [4]: does bind
